Measurements from ChEMBL document CHEMBL5723583, “Data for DCP probe BAY-9835” (2024).
The source made the active and inactive calls. No cut-off for these calls is given here.

Legend:
[1] = target: 5-hydroxytryptamine receptor 1A (Homo sapiens) (UniProt P08908); test: Inhibition of Serotonin (5-Hydroxytryptamine) 5-HT1A at 10.0 µM in the Eurofins-Panlabs selectivity screen; conditions: Compound concentration 10.0 uM
[2] = target: Endothelin-1 receptor (Homo sapiens) (UniProt P25101); test: Inhibition of Endothelin ETA at 10.0 µM in the Eurofins-Panlabs selectivity screen; conditions: Compound concentration 10.0 uM
[3] = target: 3',5'-cyclic-AMP phosphodiesterase 4D (Homo sapiens) (UniProt Q08499); test: Inhibition of Phosphodiesterase PDE4D2 at 10.0 µM in the Eurofins-Panlabs selectivity screen; conditions: Compound concentration 10.0 uM
[4] = target: Glutamate receptor ionotropic, kainate (Rattus norvegicus) (UniProt P22756+Q01812+P42260+P42264+Q63273); test: Inhibition of Glutamate, Kainate at 10.0 µM in the Eurofins-Panlabs selectivity screen; assay type: protein-complex assay; conditions: Compound concentration 10.0 uM
[5] = target: Estrogen receptor (Homo sapiens) (UniProt P03372); test: Inhibition of Estrogen ERalpha at 10.0 µM in the Eurofins-Panlabs selectivity screen; conditions: Compound concentration 10.0 uM
[6] = target: GABA transporter (Rattus norvegicus) (UniProt P31647+P23978+P31646+P48056); test: Inhibition of Transporter, GABA at 10.0 µM in the Eurofins-Panlabs selectivity screen; assay type: protein assay; conditions: Compound concentration 10.0 uM
[7] = target: Sodium-dependent dopamine transporter (Homo sapiens) (UniProt Q01959); test: Inhibition of Transporter, Dopamine (DAT) at 10.0 µM in the Eurofins-Panlabs selectivity screen; conditions: Compound concentration 10.0 uM
[8] = target: Histamine H3 receptor (Homo sapiens) (UniProt Q9Y5N1); test: Inhibition of Histamine H3 at 10.0 µM in the Eurofins-Panlabs selectivity screen; conditions: Compound concentration 10.0 uM
[9] = target: Alpha-2A adrenergic receptor (Homo sapiens) (UniProt P08913); test: Inhibition of Adrenergic alpha2A at 10.0 µM in the Eurofins-Panlabs selectivity screen; conditions: Compound concentration 10.0 uM
[10] = target: Histamine H1 receptor (Homo sapiens) (UniProt P35367); test: Inhibition of Histamine H1 at 10.0 µM in the Eurofins-Panlabs selectivity screen; conditions: Compound concentration 10.0 uM
[11] = target: Prostaglandin G/H synthase 2 (Homo sapiens) (UniProt P35354); test: Inhibition of Cyclooxygenase COX-2 at 10.0 µM in the Eurofins-Panlabs selectivity screen; conditions: Compound concentration 10.0 uM
[12] = target: Muscarinic acetylcholine receptor M2 (Homo sapiens) (UniProt P08172); test: Inhibition of Muscarinic M2 at 10.0 µM in the Eurofins-Panlabs selectivity screen; conditions: Compound concentration 10.0 uM
[13] = target: Kappa-type opioid receptor (Homo sapiens) (UniProt P41145); test: Inhibition of Opiate kappa (OP2, KOP) at 10.0 µM in the Eurofins-Panlabs selectivity screen; conditions: Compound concentration 10.0 uM
[14] = target: A disintegrin and metalloproteinase with thrombospondin motifs 7 (Homo sapiens, UniProt Q9UKP4); test: Biochemical enzymatic FRET assay (hADAMTS7) ( FRET substrate, HiLyteFluor-488 DELSSMVLELRGLRT-K(QXL520)-E-NH2 (custom synthesis by Anaspec) was used.)
[15] = target: Disintegrin and metalloproteinase domain-containing protein 8 (Homo sapiens, UniProt P78325); test: IC50 of hADAM8 at 1.0 µM in the Bayer in-house protease panel
[16] = target: Muscarinic acetylcholine receptor M1 (Homo sapiens) (UniProt P11229); test: Inhibition of Muscarinic M1 at 10.0 µM in the Eurofins-Panlabs selectivity screen; conditions: Compound concentration 10.0 uM
[17] = target: A disintegrin and metalloproteinase with thrombospondin motifs 5 (Homo sapiens, UniProt Q9UNA0); test: IC50 of hADAMTS5 at 1.0 µM in the Bayer in-house protease panel
[18] = target: Nitric oxide synthase, inducible (Homo sapiens) (UniProt P35228); test: Inhibition of Nitric Oxide Synthetase, Inducible (iNOS) at 10.0 µM in the Eurofins-Panlabs selectivity screen; conditions: Mus musculus; Compound concentration 10.0 uM
[19] = target: Beta-3 adrenergic receptor (Homo sapiens) (UniProt P13945); test: Inhibition of Adrenergic beta3 at 10.0 µM in the Eurofins-Panlabs selectivity screen; conditions: Compound concentration 10.0 uM
[20] = target: Monoamine oxidase A (MAO-A) (Homo sapiens, UniProt P21397); test: Inhibition of Monoamine Oxidase MAO-A at 10.0 µM in the Eurofins-Panlabs selectivity screen; conditions: compound concentration 10 uM
[21] = target: Prostaglandin G/H synthase 1 (Homo sapiens) (UniProt P23219); test: Inhibition of Cyclooxygenase COX-1 at 10.0 µM in the Eurofins-Panlabs selectivity screen; conditions: Compound concentration 10.0 uM
[22] = target: Neuronal acetylcholine receptor; alpha3/beta4 (Homo sapiens) (UniProt P30926+P32297); test: Inhibition of Nicotinic Acetylcholine alpha3beta4 at 10.0 µM in the Eurofins-Panlabs selectivity screen; assay type: protein-complex assay; conditions: Compound concentration 10.0 uM
[23] = target: Mu-type opioid receptor (Homo sapiens) (UniProt P35372); test: Inhibition of Opiate mu (OP3, MOP) at 10.0 µM in the Eurofins-Panlabs selectivity screen; conditions: Compound concentration 10.0 uM
[24] = target: Mucosa-associated lymphoid tissue lymphoma translocation protein 1 (Homo sapiens, UniProt Q9UDY8); test: IC50 of MALT1 at 1.0 µM in the Bayer in-house protease panel
[25] = target: B1 bradykinin receptor (Homo sapiens) (UniProt P46663); test: Inhibition of Bradykinin B1 at 10.0 µM in the Eurofins-Panlabs selectivity screen; conditions: Compound concentration 10.0 uM
[26] = target: Sodium/potassium-transporting ATPase (Sus scrofa) (UniProt P05027+P05024+D2WKD8+D2WKD7+F1ST41); test: Inhibition of ATPase, Na+/K+, Heart, Pig at 10.0 µM in the Eurofins-Panlabs selectivity screen; assay type: protein-complex assay; conditions: Compound concentration 10.0 uM
[27] = target: Androgen receptor (Homo sapiens) (UniProt P10275); test: Inhibition of Androgen (Testosterone) at 10.0 µM in the Eurofins-Panlabs selectivity screen; conditions: Compound concentration 10.0 uM
[28] = target: Cannabinoid receptor 1 (Homo sapiens) (UniProt P21554); test: Inhibition of Cannabinoid CB1 at 10.0 µM in the Eurofins-Panlabs selectivity screen; conditions: Compound concentration 10.0 uM
[29] = target: GABA-A receptor; anion channel (Rattus norvegicus) (UniProt O09028+P15431+P18506+P18508+P19969+P20236+P23574+P23576+P28471+P28473+P30191+P62813+P63079+P63138+Q91ZM7+Q9ES14); test: Inhibition of GABAA, Chloride Channel, TBOB at 10.0 µM in the Eurofins-Panlabs selectivity screen; assay type: protein-complex assay; conditions: Compound concentration 10.0 uM
[30] = target: Polyunsaturated fatty acid lipoxygenase ALOX15 (Homo sapiens) (UniProt P16050); test: Inhibition of Lipoxygenase 15-LO at 10.0 µM in the Eurofins-Panlabs selectivity screen; conditions: Compound concentration 10.0 uM
[31] = target: Aldo-keto reductase family 1 member B1 (Homo sapiens) (UniProt P15121); test: Inhibition of Aldose Reductase at 10.0 µM in the Eurofins-Panlabs selectivity screen; conditions: Rattus norvegicus; Compound concentration 10.0 uM
[32] = target: Carbonic anhydrase 2 (Homo sapiens) (UniProt P00918); test: Inhibition of Carbonic Anhydrase II at 10.0 µM in the Eurofins-Panlabs selectivity screen; conditions: Compound concentration 10.0 uM
[33] = target: D(2) dopamine receptor (Homo sapiens) (UniProt P14416); test: Inhibition of Dopamine D2S at 10.0 µM in the Eurofins-Panlabs selectivity screen; conditions: Compound concentration 10.0 uM
Sequence of D(2) dopamine receptor (Homo sapiens) (P14416 whole entry): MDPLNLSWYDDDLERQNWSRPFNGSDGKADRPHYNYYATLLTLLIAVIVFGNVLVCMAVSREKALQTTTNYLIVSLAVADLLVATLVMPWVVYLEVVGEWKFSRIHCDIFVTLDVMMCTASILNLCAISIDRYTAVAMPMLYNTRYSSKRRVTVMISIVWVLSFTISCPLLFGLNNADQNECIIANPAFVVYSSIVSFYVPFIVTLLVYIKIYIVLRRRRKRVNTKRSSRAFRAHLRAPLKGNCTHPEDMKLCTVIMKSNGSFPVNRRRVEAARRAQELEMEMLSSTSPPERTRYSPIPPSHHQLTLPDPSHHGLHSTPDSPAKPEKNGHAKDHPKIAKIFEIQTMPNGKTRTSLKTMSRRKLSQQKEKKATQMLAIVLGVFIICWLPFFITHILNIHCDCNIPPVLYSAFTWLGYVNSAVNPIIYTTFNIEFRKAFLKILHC

Sequence of Muscarinic acetylcholine receptor M2 (Homo sapiens) (P08172 whole entry): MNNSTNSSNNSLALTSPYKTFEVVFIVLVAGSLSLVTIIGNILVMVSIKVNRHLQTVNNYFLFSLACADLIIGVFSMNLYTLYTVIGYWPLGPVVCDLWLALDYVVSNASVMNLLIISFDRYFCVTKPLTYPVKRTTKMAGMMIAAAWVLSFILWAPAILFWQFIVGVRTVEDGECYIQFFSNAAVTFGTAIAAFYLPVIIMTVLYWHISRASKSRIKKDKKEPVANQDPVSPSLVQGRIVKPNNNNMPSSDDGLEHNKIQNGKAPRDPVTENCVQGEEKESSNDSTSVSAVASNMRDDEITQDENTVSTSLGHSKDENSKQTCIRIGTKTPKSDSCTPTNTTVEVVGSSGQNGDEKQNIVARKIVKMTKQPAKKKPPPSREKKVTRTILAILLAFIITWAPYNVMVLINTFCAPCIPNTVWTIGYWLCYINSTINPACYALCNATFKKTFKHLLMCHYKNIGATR
Sequence of Monoamine oxidase A (MAO-A) (P21397 whole entry): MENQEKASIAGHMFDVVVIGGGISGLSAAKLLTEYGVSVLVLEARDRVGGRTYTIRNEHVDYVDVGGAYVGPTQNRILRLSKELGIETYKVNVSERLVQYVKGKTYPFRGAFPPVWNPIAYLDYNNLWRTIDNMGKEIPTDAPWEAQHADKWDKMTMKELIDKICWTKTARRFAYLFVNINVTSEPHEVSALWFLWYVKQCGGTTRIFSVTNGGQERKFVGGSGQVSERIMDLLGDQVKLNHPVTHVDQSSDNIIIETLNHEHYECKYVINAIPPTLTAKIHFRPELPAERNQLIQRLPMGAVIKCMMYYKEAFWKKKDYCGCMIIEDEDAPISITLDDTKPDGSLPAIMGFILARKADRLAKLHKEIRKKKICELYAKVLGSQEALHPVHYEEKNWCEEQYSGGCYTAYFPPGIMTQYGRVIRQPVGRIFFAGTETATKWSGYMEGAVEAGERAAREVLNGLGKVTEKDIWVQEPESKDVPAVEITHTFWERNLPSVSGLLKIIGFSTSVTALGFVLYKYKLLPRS
Sequence of Mucosa-associated lymphoid tissue lymphoma translocation protein 1 (Q9UDY8 whole entry): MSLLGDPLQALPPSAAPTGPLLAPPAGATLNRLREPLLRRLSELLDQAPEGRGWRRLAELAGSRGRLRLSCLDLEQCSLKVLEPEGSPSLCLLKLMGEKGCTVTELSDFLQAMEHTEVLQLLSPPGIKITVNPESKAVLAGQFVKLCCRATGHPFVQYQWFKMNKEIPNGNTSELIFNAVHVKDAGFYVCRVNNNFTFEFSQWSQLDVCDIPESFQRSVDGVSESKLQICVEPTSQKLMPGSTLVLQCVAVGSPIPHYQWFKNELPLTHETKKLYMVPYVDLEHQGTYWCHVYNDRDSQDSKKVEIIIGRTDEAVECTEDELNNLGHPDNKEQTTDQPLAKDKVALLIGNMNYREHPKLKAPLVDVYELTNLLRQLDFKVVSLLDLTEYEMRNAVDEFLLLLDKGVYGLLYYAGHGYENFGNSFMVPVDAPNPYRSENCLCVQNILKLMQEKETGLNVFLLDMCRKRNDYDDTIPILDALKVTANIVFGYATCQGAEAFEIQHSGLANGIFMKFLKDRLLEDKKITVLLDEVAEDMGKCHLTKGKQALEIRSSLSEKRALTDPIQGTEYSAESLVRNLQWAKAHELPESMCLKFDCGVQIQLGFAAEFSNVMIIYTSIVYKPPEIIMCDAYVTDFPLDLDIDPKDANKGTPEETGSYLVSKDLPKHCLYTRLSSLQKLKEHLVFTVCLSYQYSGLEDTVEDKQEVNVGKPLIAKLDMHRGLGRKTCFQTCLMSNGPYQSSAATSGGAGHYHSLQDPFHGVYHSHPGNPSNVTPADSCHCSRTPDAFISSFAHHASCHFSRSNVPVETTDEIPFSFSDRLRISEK
Sequence of Endothelin-1 receptor (Homo sapiens) (P25101 whole entry): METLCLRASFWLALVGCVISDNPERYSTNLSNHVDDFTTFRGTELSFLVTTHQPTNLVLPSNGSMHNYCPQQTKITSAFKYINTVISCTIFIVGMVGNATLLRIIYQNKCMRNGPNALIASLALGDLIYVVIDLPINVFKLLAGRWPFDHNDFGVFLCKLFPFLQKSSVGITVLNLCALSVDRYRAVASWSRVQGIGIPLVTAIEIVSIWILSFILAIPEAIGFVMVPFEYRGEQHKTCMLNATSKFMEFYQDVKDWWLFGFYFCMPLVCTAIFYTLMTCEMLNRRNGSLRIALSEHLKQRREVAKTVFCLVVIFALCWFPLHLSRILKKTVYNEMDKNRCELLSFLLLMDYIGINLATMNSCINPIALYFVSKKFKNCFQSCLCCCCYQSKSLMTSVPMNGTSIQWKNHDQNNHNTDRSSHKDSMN
Sequence of Sodium-dependent dopamine transporter (Homo sapiens) (Q01959 whole entry): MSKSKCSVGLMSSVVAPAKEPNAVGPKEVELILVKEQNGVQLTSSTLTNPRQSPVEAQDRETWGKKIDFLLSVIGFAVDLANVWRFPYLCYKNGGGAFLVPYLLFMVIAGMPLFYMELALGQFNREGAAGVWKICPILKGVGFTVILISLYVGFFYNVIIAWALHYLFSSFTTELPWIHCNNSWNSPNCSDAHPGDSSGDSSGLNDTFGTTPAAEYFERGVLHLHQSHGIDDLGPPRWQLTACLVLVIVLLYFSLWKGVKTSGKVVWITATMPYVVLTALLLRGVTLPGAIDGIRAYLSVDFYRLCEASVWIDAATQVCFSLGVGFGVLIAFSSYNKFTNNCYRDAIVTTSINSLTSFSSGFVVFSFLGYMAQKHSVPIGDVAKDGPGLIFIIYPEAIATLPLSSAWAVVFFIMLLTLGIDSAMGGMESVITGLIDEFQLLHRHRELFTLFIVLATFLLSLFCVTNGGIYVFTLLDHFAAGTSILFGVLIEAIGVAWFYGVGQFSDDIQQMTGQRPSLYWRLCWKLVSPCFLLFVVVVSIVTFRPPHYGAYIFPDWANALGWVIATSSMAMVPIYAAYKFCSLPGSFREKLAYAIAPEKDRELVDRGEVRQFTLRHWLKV
Sequence of Muscarinic acetylcholine receptor M1 (Homo sapiens) (P11229 whole entry): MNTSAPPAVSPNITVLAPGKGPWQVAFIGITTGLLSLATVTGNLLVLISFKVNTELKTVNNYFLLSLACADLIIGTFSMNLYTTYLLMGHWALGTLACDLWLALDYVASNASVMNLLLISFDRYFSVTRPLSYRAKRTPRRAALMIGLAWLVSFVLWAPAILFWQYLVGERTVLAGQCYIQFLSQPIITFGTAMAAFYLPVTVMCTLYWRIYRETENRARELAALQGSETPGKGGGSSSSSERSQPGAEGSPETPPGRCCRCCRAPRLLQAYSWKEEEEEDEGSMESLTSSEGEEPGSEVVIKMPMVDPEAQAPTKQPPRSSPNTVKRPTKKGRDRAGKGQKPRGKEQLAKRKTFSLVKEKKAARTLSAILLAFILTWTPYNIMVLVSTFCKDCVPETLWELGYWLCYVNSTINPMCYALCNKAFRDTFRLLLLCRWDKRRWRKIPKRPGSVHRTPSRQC
Sequence of Histamine H1 receptor (Homo sapiens) (P35367 whole entry): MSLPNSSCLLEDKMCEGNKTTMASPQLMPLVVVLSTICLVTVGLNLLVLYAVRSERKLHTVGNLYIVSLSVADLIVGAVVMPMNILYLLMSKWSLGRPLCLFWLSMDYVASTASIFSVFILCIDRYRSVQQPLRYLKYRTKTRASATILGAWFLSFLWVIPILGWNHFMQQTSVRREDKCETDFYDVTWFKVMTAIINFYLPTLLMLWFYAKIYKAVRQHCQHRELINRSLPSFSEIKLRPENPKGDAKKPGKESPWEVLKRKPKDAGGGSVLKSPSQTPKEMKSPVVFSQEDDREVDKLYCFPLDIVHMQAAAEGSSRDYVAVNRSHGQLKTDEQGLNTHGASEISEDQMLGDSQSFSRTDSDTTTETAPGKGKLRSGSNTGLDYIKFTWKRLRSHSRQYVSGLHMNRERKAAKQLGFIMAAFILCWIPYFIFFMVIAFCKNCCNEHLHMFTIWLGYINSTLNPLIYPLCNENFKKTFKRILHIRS
Sequence of Polyunsaturated fatty acid lipoxygenase ALOX15 (Homo sapiens) (P16050 whole entry): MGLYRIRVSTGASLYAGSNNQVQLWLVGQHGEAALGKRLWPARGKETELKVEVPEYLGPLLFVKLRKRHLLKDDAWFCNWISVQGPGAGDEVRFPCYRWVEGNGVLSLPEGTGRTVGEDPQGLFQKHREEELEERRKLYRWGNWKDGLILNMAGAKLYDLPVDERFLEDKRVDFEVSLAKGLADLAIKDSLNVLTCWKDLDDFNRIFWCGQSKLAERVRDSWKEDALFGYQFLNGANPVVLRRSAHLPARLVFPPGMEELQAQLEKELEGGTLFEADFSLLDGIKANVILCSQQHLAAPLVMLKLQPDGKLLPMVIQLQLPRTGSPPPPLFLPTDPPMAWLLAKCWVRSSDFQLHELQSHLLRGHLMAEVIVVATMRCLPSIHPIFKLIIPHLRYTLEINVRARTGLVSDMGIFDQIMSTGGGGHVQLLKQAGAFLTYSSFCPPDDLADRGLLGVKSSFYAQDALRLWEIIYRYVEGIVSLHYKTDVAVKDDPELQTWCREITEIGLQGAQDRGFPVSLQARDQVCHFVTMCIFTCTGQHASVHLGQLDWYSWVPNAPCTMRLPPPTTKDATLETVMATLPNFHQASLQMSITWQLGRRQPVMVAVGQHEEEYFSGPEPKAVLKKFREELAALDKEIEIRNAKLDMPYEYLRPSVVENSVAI

Work on `Cn1nccc1[C@]1(CNC(=O)c2ccc(F)c(F)c2-c2ccc(C(F)(F)F)cc2)NC(=O)NC1=O` yielded an inhibition [1] of -3%, an inhibition [2] of 2% and an inhibition [3] of 3%. The inhibition [4] was 12%, the inhibition [5] was 13% and the inhibition [6] was 7%. It also gave an inhibition [7] of 7%, an inhibition [8] of 6% and an inhibition [9] of -3%. The inhibition [10] was -1%, the inhibition [11] was 11% and the inhibition [12] was 1%. For the same compound, the inhibition [13] was -4%, the IC50 [14] was 6 nM (active) and the IC50 [15] was 2250 nM. For the same compound, the inhibition [16] was -6%, the IC50 [17] was 9.92 µM and the inhibition [18] was 0%. The inhibition [19] was -3%, the inhibition at 10 µM [20] was 0% and the inhibition [21] was -5%. For the same compound, the inhibition [22] was 2%, the inhibition [23] was 2% and the IC50 [24] was greater than 100 µM. It also gave an inhibition [25] of 1%, an inhibition [26] of -5% and an inhibition [27] of 3%. It also gave an inhibition [28] of -3%, an inhibition [29] of 0% and an inhibition [30] of -6%. It also gave an inhibition [31] of -4%, an inhibition [32] of -2% and an inhibition [33] of 0%.
